{"source": "paper PMC12036814", "about": "(Angewandte Chemie (International Ed. in English), 2025)", "key": {"[1]": {"test_system": "IDH2 mRNA in PDL-hTERT cells", "assay": "Quantitative PCR of IDH2 mRNA", "format": "cell-based, human", "set-up": "dose or concentration left out as unconfirmed", "conditions": "[…] µM, GAPDH housekeeper"}, "TRIM26": {"molecular_target": "T1, TRIM26 (Homo sapiens, UniProt Q12899)", "T1 construct": "endogenous in cells; host or cells: HEK293", "T1 sequence (Q12899 1-539)": "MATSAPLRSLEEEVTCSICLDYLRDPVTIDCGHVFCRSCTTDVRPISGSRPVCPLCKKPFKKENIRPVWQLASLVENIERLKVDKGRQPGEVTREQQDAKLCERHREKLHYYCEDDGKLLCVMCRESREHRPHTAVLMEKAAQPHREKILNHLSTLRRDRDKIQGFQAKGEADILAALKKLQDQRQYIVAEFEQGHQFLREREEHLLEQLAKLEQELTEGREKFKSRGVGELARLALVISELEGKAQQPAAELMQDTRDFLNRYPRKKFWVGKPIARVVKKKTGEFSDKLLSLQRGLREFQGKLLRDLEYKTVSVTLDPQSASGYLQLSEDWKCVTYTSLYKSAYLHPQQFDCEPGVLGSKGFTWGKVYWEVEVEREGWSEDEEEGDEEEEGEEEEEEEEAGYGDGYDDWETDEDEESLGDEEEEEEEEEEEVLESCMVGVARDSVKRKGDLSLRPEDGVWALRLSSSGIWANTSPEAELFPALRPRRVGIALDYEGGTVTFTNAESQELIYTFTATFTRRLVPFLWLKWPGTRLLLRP", "assay": "Thermal protein profiling (TPP) in intact HEK293 cells", "format": "cell-based", "conditions": "1 h", "protocol": "(§1) incubated in a thermoshaker (600 rpm, 16 h, 37 °C). The digest was stopped by adding 10 μL formic\n(§2) acid (FA) and vortexing followed by centrifugation (12,000 ×g, 3 min, room temperature). 50 mg\n(§3) SepPak C18 columns (Waters, Milford, USA, Cat# WAT054960) were equilibrated by gravity flow two\n(§4) times with 1 mL acetonitrile and three times with 1 mL aqueous 0.1% trifluoroacetic acid (TFA) solution.\n(§5) Subsequently, the samples were loaded by gravity flow, washed three times with 1 mL aqueous 0.1%\n(§6) TFA solution and once with 0.5 mL aqueous 0.5% formic acid (F A) solution. Elution of peptides into\n(§7) new 2.0 mL Protein LoBind Eppendorf tubes was performed by two times addition of 250 μL elution\n(§8) buffer (80% acetonitrile, 0.5% FA) by gravity flow followed by 250 μL elution buffer by vacuum flow\n(§9) until all liquid was eluted from the column. The eluates were lyophilized. Before MS measurement the\n(§10) (brief centrifugation after each step).\n(§11) Thermal protein profiling (TPP)\n(§12) The experiment was performed similarly to TPP-TR experiments described by Franken et al. with minor\n(§13) modifications.5 HEK293 cells were grown in 8 T175 flasks to approx. 80-90% confluency. Per replicate\n(§14) volume of 0.1 N HCl as vehicle control. Per condition two replicates were used, leading to a total of 8\n(§15) T175 flasks. The cells were washed with PBS, detached with accutase, the two flask per replicate\n(§16) condition combined and the cells pelletized (500 ×g, 3 min, r.t.). The medium was removed and each\n(§17) pellet (Cipro #1, Cipro #2, Ctrl. #1, Ctrl #2) washed twice with cold PBS. Each pellet was resuspended\n(§18) depending on the sample. The cell suspension of each sample was distributed into 10 PCR tubes\n(§19) (100 µL per tube), resulting in 10 stripes á 4 tubes (2×2 conditions, 10 temperature points). The PCR\n(§20) tubes were subjected to the temperature gradient using a PCR cycler.\n(§21) limitations, two separate programs had to be run to cover the desired temperature range (see\n(§22) Table S4). The PCR tubes were heat-treated according to the two programs for 3 min and directly snap\n(§23) frozen in liquid nitrogen.\n(§24) manufacturer instructions."}, "RAP1A": {"molecular_target": "T2, RAP1A (Homo sapiens, UniProt P62834)", "T2 construct": "endogenous in cells; host or cells: HEK293", "T2 sequence (P62834 1-184)": "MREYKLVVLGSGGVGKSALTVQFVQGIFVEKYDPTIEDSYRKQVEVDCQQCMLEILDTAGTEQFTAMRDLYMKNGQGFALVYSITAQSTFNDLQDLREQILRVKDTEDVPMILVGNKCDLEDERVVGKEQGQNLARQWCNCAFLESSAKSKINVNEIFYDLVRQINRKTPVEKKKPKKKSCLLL", "assay": "Thermal protein profiling (TPP) in intact HEK293 cells", "format": "cell-based", "conditions": "1 h", "protocol": "as §1, §2, §3, §4, §5, §6, §7, §8, §9, §10, §11, §12, §13, §14, §15, §16, §17, §18, §19, §20, §21, §22, §23, §24"}, "ADAL": {"molecular_target": "T3, ADAL (Homo sapiens, UniProt Q6DHV7)", "T3 construct": "endogenous in cells; host or cells: HEK293", "T3 sequence (Q6DHV7 1-355)": "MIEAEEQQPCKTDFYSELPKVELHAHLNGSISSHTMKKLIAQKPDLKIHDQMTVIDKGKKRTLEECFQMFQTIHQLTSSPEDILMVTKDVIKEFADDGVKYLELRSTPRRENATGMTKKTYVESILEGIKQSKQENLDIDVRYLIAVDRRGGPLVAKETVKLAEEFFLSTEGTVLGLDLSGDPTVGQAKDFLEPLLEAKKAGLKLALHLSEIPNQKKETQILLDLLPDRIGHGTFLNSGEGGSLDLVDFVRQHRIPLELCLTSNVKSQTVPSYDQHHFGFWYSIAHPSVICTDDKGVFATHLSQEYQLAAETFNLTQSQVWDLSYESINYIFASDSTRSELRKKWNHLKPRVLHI", "assay": "Thermal protein profiling (TPP) in intact HEK293 cells", "format": "cell-based", "conditions": "1 h", "protocol": "as §1, §2, §3, §4, §5, §6, §7, §8, §9, §10, §11, §12, §13, §14, §15, §16, §17, §18, §19, §20, §21, §22, §23, §24"}, "ULK3": {"molecular_target": "T4, ULK3 (Homo sapiens, UniProt Q6PHR2)", "T4 construct": "endogenous in cells; host or cells: HEK293", "T4 sequence (Q6PHR2 1-472)": "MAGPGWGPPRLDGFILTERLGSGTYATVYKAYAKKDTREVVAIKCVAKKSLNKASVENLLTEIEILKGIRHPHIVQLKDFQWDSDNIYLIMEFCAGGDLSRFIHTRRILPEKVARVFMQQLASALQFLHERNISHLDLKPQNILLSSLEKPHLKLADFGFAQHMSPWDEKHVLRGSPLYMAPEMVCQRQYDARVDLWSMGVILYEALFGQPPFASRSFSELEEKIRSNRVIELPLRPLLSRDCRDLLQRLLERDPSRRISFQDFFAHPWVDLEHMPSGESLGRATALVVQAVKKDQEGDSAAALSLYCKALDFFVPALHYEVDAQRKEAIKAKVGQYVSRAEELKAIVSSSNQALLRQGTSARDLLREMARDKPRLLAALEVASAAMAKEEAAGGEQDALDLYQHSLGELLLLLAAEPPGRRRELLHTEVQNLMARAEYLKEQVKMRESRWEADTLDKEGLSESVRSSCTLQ", "assay": "Thermal protein profiling (TPP) in intact HEK293 cells", "format": "cell-based", "conditions": "1 h", "protocol": "as §1, §2, §3, §4, §5, §6, §7, §8, §9, §10, §11, §12, §13, §14, §15, §16, §17, §18, §19, §20, §21, §22, §23, §24"}}, "note": "Where two headings read alike, the source gives them in different places."}
{"molecule": "O=C(O)c1cn(C2CC2)c2cc(N3CCNCC3)c(F)cc2c1=O", "note": "[Ciprofloxacin]", "values": [{"measurement": "IDH2 mRNA levels versus vehicle control", "setting": "[1]", "result": "not significantly changed"}, {"measurement": "ΔTm at 70 µM", "setting": "TRIM26; read-out: ΔTm Rep. 1", "result": 3.54, "unit": "°C"}, {"measurement": "ΔTm at 70 µM", "setting": "TRIM26; read-out: ΔTm Rep. 2", "result": 3.88, "unit": "°C"}, {"measurement": "ΔTm at 70 µM", "setting": "RAP1A; read-out: ΔTm Rep. 1", "result": 1.79, "unit": "°C"}, {"measurement": "ΔTm at 70 µM", "setting": "RAP1A; read-out: ΔTm Rep. 2", "result": 2.89, "unit": "°C"}, {"measurement": "ΔTm at 70 µM", "setting": "ADAL; read-out: ΔTm Rep. 1", "result": 5.91, "unit": "°C"}, {"measurement": "ΔTm at 70 µM", "setting": "ADAL; read-out: ΔTm Rep. 2", "result": 6.21, "unit": "°C"}, {"measurement": "ΔTm at 70 µM", "setting": "ULK3; read-out: ΔTm Rep. 1", "result": 1.72, "unit": "°C"}, {"measurement": "ΔTm at 70 µM", "setting": "ULK3; read-out: ΔTm Rep. 2", "result": 4.39, "unit": "°C"}]}
